We go through three compounds from US11325907B2, “Crystal form of 1H-imidazo[4,5-b]pyridine-2(3H)-one compound and preparation process therefor” (MEDSHINE DISCOVERY INC., priority 2018, dated 2022).

Assay [1] concerns collagen-induced arthritis in mice. Kind of assay: In vivo CIA model (collagen-induced arthritis). Conditions: for Total pathological score (both hind limbs): day 38, Mean±SEM. Set-up: species or system DBA/1 mice; Average clinical symptom score: dose or concentration left out as unconfirmed; key to Total pathological score (both hind limbs): each of 4 joint-damage aspects scored 0-4, summed over both hind limbs. The source says: A series of symptoms similar to human psoriatic arthritis, such as redness and swelling of the joint, articular cartilage damage, and capsula articularis damage are elicited in the model by injection of type II collagen to activate reactivity of B cells, T cell on bone collagen, and the activated B cells and T cells enter the joints to cause joint inflammation. During pre-clinical evaluation of candidate compounds for treating psoriatic arthritis, collagen-induced arthritis in mice is often used to evaluate the effectiveness.
The purpose of this experiment was to study the therapeutic effect of Compound 1 on collagen-induced arthritis in mice, so as to provide preclinical pharmacodynamic relevant information for subsequent clinical studies.
1. Type II collagen/complete Freund's adjuvant immunization
Preparation of acetic acid: Diluting acetic acid to 100 mM, which was filtered with 0.22 um filter membrane and stored at 4° C.
Bovine type II collagen solution: Dissolving bovine type II collagen (CII) in acetic acid solution, which was stored at 4° C. overnight.
Preparation of emulsion: Mixing the CII solution stored overnight with equal volume of the complete Freund's adjuvant and homogenize the mixture with high-speed homogenizer until the solution formed a stable emulsion.
Preparation of lipopolysaccharide (LPS): Weighing LPS, adding normal saline, and mixing until a stable solution with concentration of […] was formed.
The mice were randomly assigned to different treatment groups. The day of the first immunization was recorded as day 0, and the subsequent days were marked sequentially.
After DBA/1 mice were anesthetized with isoflurane, the prepared collagen emulsion was injected subcutaneously in the tail.
On day 23, 100 μl of LPS solution was injected intraperitoneally.
On day 27, when the average clinical score reached about 1, 60 mice with moderate onset were selected, and they were re-randomized according to body weight and score, with 10 mice in each group.
Dexamethasone as positive control drug in 0.3 mg/kg dose group is commonly used in the CIA model. In addition, the relevant dose design of Compound 1 and the control compound Apremilast were determined according to the results of earlier preliminary experiments. Group 1 was normal mice without any treatment; Group 2 was vehicle control group and was administered vehicle; Group 3 was administered dexamethasone at a dose of 0.3 mg/kg; Group 4 was administered Apremilast at a dose of 5 mg/kg; Group 5, Group 6, and Group 7 were administered Compound 1 with doses of 0.3, 1, and 3 mg/kg, respectively. Administration was given once a day for 11 days in total. The volume of intragastric administration was 10 ml/kg.
Clinical observation: From 7 days before immunization to 23 days after immunization, the basic health status and body weight changes of DBA/1 mice were observed daily (recorded once a week). After the 23rd day, the health status, morbidity and body weight change of the mice were observed daily (recorded at least three times a week) until the end of the experiment.
Clinical score: After LPS injection, the morbidities of mice were observed every day. After the onset of disease in mice (clinical symptoms of arthritis), they were scored according to severity of conditions (redness and swelling, joint deformation) according to 0-4 point standard, with a maximum score of 4 for each limb, and a maximum score of 16 for each animal. At least three times of scoring were performed a week.
Pathology: On day 38, the mouse was euthanized. The two posterior limbs of the mouse were taken, soaked with 10% formalin solution, decalcified with formic acid solution, embedded with paraffin, sectioned, stained with hematoxylin-eosin (HE), and observed with photomicrography. The degree of joint damage was evaluated in four aspects: inflammatory cell infiltration, pannus formation, cartilage injury and bone resorption, and scored according to 0-4 score standard. […]

Assay [2] concerns the target T1, phosphodiesterase 4B subtype (PDE4B) (Homo sapiens, UniProt Q07343).
T1 construct: amino acid 305 terminal; GST (N); made in house; host or cells: Sf9 insect cells (baculovirus)
Kind of assay: Inhibitory activity on PDE4B enzyme (fluorescence polarization). Format: biochemical. Here is the method:
This biological experiment based on fluorescence polarization was used to determine AMP/GMP expression, that is, to show enzyme activity by tracking AMP/GMP antibody binding.
Experimental buffer solution: 10 mM Trihydroxymethyl aminomethane-hydrochloric acid buffer solution (Tris-HCl) (pH 7.5), 5 mM MgCl2, 0.01% Polyoxyethylene lauryl ether (Brij 35), 1 mM Dithiothreitol (DTT), and 1% DMSO.
Enzymes: Recombinant humanized PDE4B (Genebank Accession Number NM_002600; amino acid 305 terminal) was expressed with baculovirus in Sf9 insect cells using N-terminal GST tag. MW=78 kDa.
Enzyme substrate: 1 μM cAMP
Detection: Transcreener®AMP2/GMP2 antibody and AMP2/ GMP2 AlexaFluor633 tracing.
• 1. Dissolving the recombinant human PDE4B enzyme and enzyme substrate (1 μM cAMP) in freshly prepared experimental buffer; • 2. Transferring the above PDE4B enzyme buffer solution to reaction wells; • 3. Adding Compound 1 dissolved with 100% DMSO to the reaction well with PDE4B enzyme buffer solution via acoustic technology (echo 550 nanoliter range) and incubating for 10 min at room temperature; • 4. […] The range of fluorescence polarization determination is Ex/Em=620/688.
Data Analysis: The fluorescence polarization signal was converted into nM according to the AMP/GMP standard curve and the control % enzyme activity relative to the DMSO calculated by Excel software. […]
For orientation: Fluorescence polarisation rises when a labelled molecule tumbles more slowly, as on binding a larger partner.

For assay [3], the system named is TNFα production in human peripheral blood mononuclear cells (hPBMC). The assay is described as follows: Inhibition of LPS-induced TNFα production in hPBMC. The format is cell-based. The protocol: The inhibitory activity of Compound 1 of lipopolysaccharide (LPS)-induced TNFα production in human peripheral blood mononuclear cells.
• 1. Collecting normal human whole blood, which was anticoagulated with EDTA-K2 anticoagulation tube; • 2. Separating PBMC with Ficoll density gradient centrifugation, counting and adjusting the cell concentration to 2×10^6/mL; • 3. To U-bottom 96-well plate were added 2×10^5 cells/well, LPS 1 ng/mL was added, various concentrations of compound at 100 μM, 10 μM, 1 μM, 100 nM, 10 nM, 1 nM, 100 pM, 10 pM, 200 μl system/well, in duplicated wells; • 4. Incubating for 24 h, collecting the supernatant; • 5. Detecting the level of TNFα in supernatant with ELISA, fitting the inhibition curve and calculating IC50 with Graphpad Prism software.

[4] abbreviates: Mus musculus, po, 264 h, 0.3 mg/kg gavage once a day for 11 days, read-out: Inhibition rate of area under the clinical score curve (AUC) relative to vehicle control group.

T1 sequence (Q07343 305-736 limits assumed): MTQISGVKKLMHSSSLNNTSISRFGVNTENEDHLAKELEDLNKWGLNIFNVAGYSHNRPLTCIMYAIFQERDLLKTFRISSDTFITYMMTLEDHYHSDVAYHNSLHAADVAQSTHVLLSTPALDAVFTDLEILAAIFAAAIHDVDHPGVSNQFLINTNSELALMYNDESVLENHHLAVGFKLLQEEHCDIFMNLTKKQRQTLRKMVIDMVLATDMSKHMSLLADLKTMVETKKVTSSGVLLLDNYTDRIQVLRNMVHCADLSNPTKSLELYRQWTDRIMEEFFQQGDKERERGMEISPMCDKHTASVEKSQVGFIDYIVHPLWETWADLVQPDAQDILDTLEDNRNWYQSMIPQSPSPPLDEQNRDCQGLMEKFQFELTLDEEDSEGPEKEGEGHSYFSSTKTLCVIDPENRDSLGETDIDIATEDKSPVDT

For orientation: inhibition means the change of the read-out against control, counted positive when it falls. In assay [1] (0.3 mg/kg gavage once a day, from the 30th day until the end of the experiment, p<0.0001 vs vehicle), `C[C@@H]1C[C@H]2[C@@H]3CCC4=CC(=O)C=C[C@]4(C)[C@@]3(F)[C@@H](O)C[C@]2(C)[C@@]1(O)C(=O)CO` [Dexamethasone, reference compound] gave a Clinical score of 0. Besides, the inhibition at 0.3 mg/kg in assay [1] (setting [4]) was 96.4%.

With `CCOc1cc([C@@H](CS(C)(=O)=O)N2C(=O)c3cccc(NC(C)=O)c3C2=O)ccc1OC` [Apremilast, reference compound], the “Decrease of average clinical symptom score compared to vehicle control group” value in assay [1] (5 mg/kg gavage once a day for 11 days, 37th day, p<0.001) is given as 3.7. Also, the “Total pathological score (both hind limbs)” value in assay [1] (5 mg/kg gavage once a day for 11 days, p<0.05 vs vehicle) turned out to be 13.90±1.89. Moreover, the inhibition at 5 mg/kg in assay [1] (Mus musculus, po, 264 h, 5 mg/kg gavage once a day for 11 days, read-out: Inhibition rate of area under the clinical score curve (AUC) relative to vehicle control group) is 41.3%. Further, in assay [1] (gavage once a day for 11 days, 37th day), the “Average clinical symptom score” value was determined as 4.2.

The term IC50 denotes the midpoint of a concentration-inhibition curve. Turning to `CCOc1cc([C@@H](CS(C)(=O)=O)n2c(=O)[nH]c3c(C)c(-c4ccccc4F)cnc32)ccc1OC` [Compound 1], the “In vitro activity of inhibiting PDE4B (conclusion)” value in assay [2] is reported as “excellent in vitro activity”. Besides, in assay [3], the “In vitro activity of inhibiting TNFα production in hPBMC (conclusion)” value is “excellent in vitro activity”. The same compound returned an IC50 in assay [3] (Homo sapiens, PBMC, LPS 1 ng/mL, 24 h, TNFα in supernatant by ELISA) of 0.56 nM. The Clinical average score in assay [1] (0.3 mg/kg gavage once a day for 11 days, 37th day, p<0.0001 vs vehicle) worked out at 3.6; in assay [1] (1 mg/kg gavage once a day for 11 days, 37th day, p<0.001 vs vehicle), 4.3; in assay [1] (3 mg/kg gavage once a day for 11 days, 37th day, p<0.0001 vs vehicle), 3.5. Moreover, in assay [1] (1 mg/kg and 3 mg/kg dose groups), the “Arthritis pathology (conclusion)” value is reported as “significant improvement”. For the same compound, the “Total pathological score (both hind limbs)” value in assay [1] (1 mg/kg gavage once a day for 11 days, p<0.05 vs vehicle) worked out at 14.00±2.43; in assay [1] (3 mg/kg gavage once a day for 11 days, p<0.0001 vs vehicle) it was 9.20±1.83. Further, in assay [1] (Compound 1 at 3 mg/kg vs Apremilast at 5 mg/kg), the “Therapeutic effect (clinical score and arthritis pathological score) compared with Apremilast” value is “better than that of Apremilast at 5 mg/kg”. Further, in assay [1] (setting [4]), the inhibition at 0.3 mg/kg was 43.9%. For the same compound, the inhibition at 1 mg/kg in assay [1] (Mus musculus, po, 264 h, 1 mg/kg gavage once a day for 11 days, read-out: Inhibition rate of area under the clinical score curve (AUC) relative to vehicle control group) worked out at 39.4%. The inhibition at 3 mg/kg in assay [1] (Mus musculus, po, 264 h, 3 mg/kg gavage once a day for 11 days, read-out: Inhibition rate of area under the clinical score curve (AUC) relative to vehicle control group) was 51.7%. In assay [1] (three dose groups of 0.3, 1 and 3 mg/kg), the “Symptoms of the collagen-induced arthritis (conclusion)” value is reported as “significantly improved”.
